Measured values as given in article PMC2847825 (Biological chemistry, 2009).

Molecular target: T1, phenylalanine hydroxylase (Rattus norvegicus, UniProt P04176)
T1 sequence (P04176 2-453): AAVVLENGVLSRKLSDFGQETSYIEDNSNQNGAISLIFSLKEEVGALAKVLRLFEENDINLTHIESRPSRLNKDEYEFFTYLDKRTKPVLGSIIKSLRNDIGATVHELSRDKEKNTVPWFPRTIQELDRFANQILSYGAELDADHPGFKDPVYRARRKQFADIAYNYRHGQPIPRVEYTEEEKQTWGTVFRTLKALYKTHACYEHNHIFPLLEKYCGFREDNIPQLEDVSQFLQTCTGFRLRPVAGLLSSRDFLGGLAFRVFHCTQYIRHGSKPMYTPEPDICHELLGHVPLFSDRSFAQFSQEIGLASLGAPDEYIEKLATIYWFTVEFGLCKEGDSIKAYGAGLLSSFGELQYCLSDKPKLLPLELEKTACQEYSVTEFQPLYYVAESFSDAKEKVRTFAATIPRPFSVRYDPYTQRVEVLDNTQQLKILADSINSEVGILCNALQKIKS
Assay: recombinant enzyme activity, HPLC detection of tyrosine
Format: biochemical

In the case of `c1cnc2c(c1)ccc1cccnc12` [1,10-phenanthroline], the “recombinant enzyme activity, HPLC detection of tyrosine” value was 0.01 mM.
